Test results as given in patent US20170071976A1, “PHARMACEUTICAL SOLUTION HAVING ANTI-TUMOR EFFECT-ENHANCING AND TOXICITY-REDUCING EFFECT, AND PHARMACEUTICAL COMPOSITION COMPRISING SAME” (priority 2014, published 2017).
Like-named read-outs stand apart in the source and are kept apart here. Marks after values point to notes of the source that are not given here.

Assays:
[1] = test system: xenograft tumors from human ovarian cancer SKOV3 cells; assay: SKOV3 xenograft in nude mice, intravenous deuterium oxide in combination with paclitaxel; type: in vivo, BALB/c nude mice; settings: Paclitaxel 8 mg/kg × 11, tail vein
Source text: 3. […] 4. Statistics: the same as Example 21.

[2] = test system: xenograft tumors from human lung cancer A549 cells; assay: A549 xenograft in nude mice, intravenous deuterium oxide in combination with gemcitabine; settings: Paclitaxel 8 mg/kg × 11, tail vein; for Tumor weight: control 2.92 ± 0.27; for Inhibition (%): tumor weight
Procedure: (§1) Animal: 6 to 7 week-aged female BALB/c nude mice, each weighing 18 to 20 g, provided by Shanghai SLAC Laboratory Animal Co. Ltd.
Test drugs: gemcitabine (GEM) and the sodium chloride deuterium oxide solution prepared in Example 1.
(§2) Tumor cells were resuscitated and inoculated, and sterile sodium chloride physiological solution was added thereto to make a cell suspension which was subcutaneously inoculated into the upper right axillary fossa of animals. 5×10^6 tumor cells were inoculated into each animal.
The diameter of xenograft tumors in the nude mice was measured with a vernier caliper, and 10 days after inoculation, when tumors grew to 100 to 110 cm^3, the animals were randomized with 8 mice per group. Meanwhile drugs were administered by injection into tail vein, once every three days, for 21 successive days. By measuring the tumor diameter, the anti-tumor efficacy of test samples was dynamically observed. Meanwhile the body weight of animals was also recorded to observe the toxicity of the test samples. 21 days after administration, the nude mice were sacrificed, and tumors were harvested by surgery, weighed and photographed.
6) Test group 2: gemcitabine (10 mg/kg) diluted in the sodium chloride deuterium oxide solution (10 ml/kg). 7) Test group 3: gemcitabine (10 ml/kg) diluted in the sodium chloride deuterium oxide solution (20 ml/kg).

[3] = test system: xenograft tumors from human colon cancer HCT-116 cells; assay: HCT-116 xenograft in nude mice, intravenous deuterium oxide in combination with 5-fluorouracil; type: in vivo, BALB/c nude mice
Procedure: Ltd. Cell lines: human colon cancer cells HCT-116 were provided by NANJING […] BIOTECH. CO., LTD. […] Bone marrow nucleated cells were isolated by a routine method, DNA was extracted from the cells, the OD value was measured in a UV-260 spectrometer as a representative of the DNA content, and inhibition of DNA synthesis by the test samples was observed. The test used 7 groups in total, with 8 animals per group. […] Tumor volume (TV) was calculated by the following equation: […] From the measurements, relative tumor volume (RTV) was calculated by the following equation: RTV=Vt/V0 Relative tumor growth ratio T/C (%) was calculated by the following equation: Criteria of efficacy evaluation: […] T/C %≦40% and statistically P<0.05, efficacious. Inhibition of tumor growth (%) was calculated by the following equation: Criteria of efficacy evaluation: […] The mean value was expressed in X±SD. Inter-group analysis was statistically performed with t test. The results were statistically analyzed using SPSS (Statistical Package for the Social Science) 17.0.

[4] = test system: xenograft tumors from human breast cancer MCF-7 cells; assay: MCF-7 xenograft in nude mice, intravenous deuterium oxide in combination with gemcitabine; type: in vivo, BALB/c nude mice; settings: Paclitaxel 8 mg/kg × 11, tail vein
Procedure: Ltd. Cell lines: human breast cancer MCF-7 cells were provided by NANJING […] BIOTECH. CO., LTD. […] Bone marrow nucleated cells were isolated by a routine method, DNA was extracted from the cells, the OD value was measured in a UV-260 spectrometer as a representative of the DNA content, and inhibition of DNA synthesis by the test samples was observed. The test used 7 groups in total, with 8 animals per group. […] Statistics: the same as Example 21.

[5] = test system: xenograft tumors from human bladder cancer 5637 cells; settings: Thiotepa 0.2 mg/kg × 11, tail vein; for Inhibition (%): tumor weight
Source text: Inhibition of growth of xenograft tumors from human bladder cancer 5637 cells in nude mice by intravenous injection of deuterium oxide in combination with thiotepa
as §1
Cell lines: human bladder cancer 5637 cells were provided by NANJING KEYGEN BIOTECH. CO., LTD.
Test drugs: thiotepa and the sodium chloride deuterium oxide solution, prepared in Example 1.
as §2
The diameter of xenograft tumors in the nude mice was measured with a vernier caliper, and 10 days after inoculation, when tumors grew to 100 to 110 cm^3, the animals were randomized. Meanwhile drugs were administered by injection into tail vein, once every three days, for 21 successive days. The body weight of animals was also recorded to observe the toxicity of the test samples. 21 days after administration, the nude mice were sacrificed, and tumors were harvested by surgery, and weighed.
The test used 5 groups in total, with 5 animals per group.
1) Control group: sodium chloride physiological solution, 10 ml/kg; 2) Thiotepa positive control group: thiotepa (0.2 mg/kg) diluted in sodium chloride physiological solution; 3) Test group 1: thiotepa (0.2 mg/kg) diluted in the sodium chloride deuterium oxide solution (1 ml/kg); 4) Test group 2: thiotepa (0.2 mg/kg) diluted in the sodium chloride deuterium oxide solution (10 ml/kg); 5) Test group 3: thiotepa (0.2 mg/kg) diluted in the sodium chloride deuterium oxide solution (25 ml/kg).

[6] = test system: liver cancer H22 ascites tumor; assay: Liver cancer H22 ascites tumor mice, intraperitoneal retention lavage with deuterium oxide and cisplatin (room temperature or 42±1° C.); type: in vivo, Kunming mice; settings: cisplatin 0.6 mg/kg + Ringer's solution
Procedure: Animal: 4 to 5 week-aged male Kunming mice, provided by Shanghai SIPPR-BK Laboratory Animal Co. Ltd. Cell lines: […] CO., LTD. […] Test drugs: cisplatin, and the Ringer's deuterium oxide solution as prepared in Example 6. Grouping and dosing: the mouse model was established 7 to 8 days after inoculation, and the mice were randomized with 18 animals/group. Cisplatin were dissolved in a 42±1° C. Ringer's deuterium oxide solution, and used to lavage the peritoneal cavity of the tumor-bearing mice. 1). Blank control group (normal Ringer's solution, 10 ml/kg, room temperature); 2). Normal chemo group (cisplatin 0.6 mg/kg+normal Ringer's solution, 10 ml/kg, room temperature); 3). […] Room temperature high-dose deuterium oxide+cisplatin group (Ringer's deuterium oxide solution, 40 ml/kg+cisplatin 0.6 mg/kg); 6). Hyperthermic low-dose deuterium oxide+cisplatin group (42±1° C. […] Hyperthermic mid-dose deuterium oxide+cisplatin group (42±1° C. […] Hyperthermic high-dose deuterium oxide+cisplatin group (42±1° C. Ringer's deuterium oxide solution, 40 ml/kg+cisplatin 0.6 mg/kg); […] The lavage was performed once another day for 5 successive times. […] 4. […] Statistics: the same as Example 18.

[7] = test system: sarcoma S180 (ascites type); assay: Sarcoma S180 (ascites type) mice, 42±1° C. intraperitoneal retention lavage with deuterium oxide, oxaliplatin and mitomycin; type: in vivo, Kunming mice; settings: oxaliplatin 0.8 mg/kg + glucose injection 5 ml/kg
Procedure: Inhibition of sarcoma S180 (ascites type) in tumor-bearing mice by 42±1° C. hyperthermic intraperitoneal retention lavage using deuterium oxide in combination with oxaliplatin and using deuterium oxide in combination with oxaliplatin and mitomycin.
Cell lines: sarcoma S180 (ascites type) cell line was provided by NANJING KEYGEN BIOTECH. CO., LTD.
Modeling: 0.2 ml suspension of sarcoma S180 cells containing 1×10^7 cells/ml was inoculated into the peritoneal cavity of mice.
Test drugs: oxaliplatin, mitomycin, and the glucose deuterium oxide solution as prepared in Example 2.
Grouping and dosing: the mouse model was established 7 to 8 days after inoculation, and the mice were randomized with 12 animals/group.
Oxaliplatin and mitomycin were dissolved in a 42±1° C. glucose deuterium oxide solution, and used to lavage the peritoneal cavity of the tumor-bearing mice.
Blank control group (5% glucose injection, 5 ml/kg); 2). Chemo group (oxaliplatin 0.8 mg/kg+5% glucose injection, 5 ml/kg); 3). Low-dose deuterium oxide+oxaliplatin group (5% glucose deuterium oxide solution, 5 ml/kg+oxaliplatin 0.8 mg/kg); 4). Mid-dose deuterium oxide+oxaliplatin group (5% glucose deuterium oxide solution, 20 ml/kg+oxaliplatin 0.8 mg/kg); 5). High-dose deuterium oxide+oxaliplatin group (5% glucose deuterium oxide solution, 40 ml/kg+oxaliplatin 0.8 mg/kg); 6). Low-dose deuterium oxide+oxaliplatin+mitomycin group (42±1° C. 5% glucose deuterium oxide solution, 5 ml/kg+oxaliplatin 0.8 mg/kg+mitomycin 0.4 mg/kg); 7). […]
The peritoneal cavity was lavaged with the 42±1° C. glucose deuterium oxide solution in combination with the above composition, which were retained for 10 min in the peritoneal cavity after being introduced, which was repeated for 3 times. […] 24 hours after the administration of drugs was completed (on day 11), 4 mice from each group were sacrificed, the volume of ascitic fluid was measured, and bodies of the mice were dissected to observe the peritoneal organs and metastasis to lung. […]

SMILES: CC(=O)O[C@H]1C(=O)[C@@]2(C)[C@H]([C@H](OC(=O)c3ccccc3)[C@]3(O)C[C@H](OC(=O)[C@H](O)[C@@H](NC(=O)c4ccccc4)c4ccccc4)C(C)=C1C3(C)C)[C@]1(OC(C)=O)CO[C@@H]1C[C@@H]2O [Paclitaxel, paclitaxel]
- Tumor weight ([1]; control 3.22 ± 1.59): 2.07 ± 1.06 g
- Body weight (g) End, given as change ([1]; control +4.0): +2.8 g
- Inhibition (%) ([1]; tumor weight): 35.7%
- Body weight (g) Initial [2]: 18.4 g
- Tumor weight [2]: 0.94 ± 0.25 g
- Tumor weight ([2]; listed as paclitaxel): 0.94 ± 0.25 g
- Body weight (g) End, given as change ([2]; control +1.4): +0.9 g
- Inhibition (%) [2]: 67.97* %
- Inhibition (%) ([2]; listed as paclitaxel): 67.97%
- Body weight (g) Initial ([3]; Paclitaxel 8 mg/kg × 11, tail vein): 18.4 g
- Bone marrow DNA content (OD) ([3]; Paclitaxel 8 mg/kg × 11, tail vein, control 0.950 ± 0.2711): 0.841 ± 0.3014 OD
- Tumor weight ([3]; Paclitaxel 8 mg/kg × 11, tail vein, control 2.92 ± 0.27): 0.94 ± 0.25 g
- Body weight (g) End, given as change ([3]; Paclitaxel 8 mg/kg × 11, tail vein, control +0.4): -1.2 g
- Body weight (g) Initial ([3]; Paclitaxel 8 mg/kg × 11, tail vein, listed as paclitaxel): 18.4 ± 0.5 g
- body weight at end ([3]; high-dose paclitaxel positive control): 16.8 ± 0.9 g
- Inhibition (%) ([3]; tumor weight, Paclitaxel 8 mg/kg × 11, tail vein): 67.80%*
- Body weight (g) Initial [4]: 18.3 g
- Bone marrow DNA content (OD) ([4]; control 0.931 ± 0.2011): 0.881 ± 0.2502 OD
- Tumor weight ([4]; control 4.07 ± 0.76): 1.59 ± 0.40 g
- Body weight (g) End, given as change ([4]; control +3.3): +1.0 g
- Inhibition (%) ([4]; tumor weight): 60.93%*

SMILES: S=P(N1CC1)(N1CC1)N1CC1 [Thiotepa, thiotepa]
- Body weight (g) Initial [5]: 20.6 g
- Tumor weight ([5]; control 2.87 ± 1.11): 1.75 ± 1.06 g
- Body weight (g) End, given as change ([5]; control +3.1): +2.6 g
- Inhibition (%) [5]: 39.0%
- Inhibition (%) ([5]; listed as thiotepa): 39%

SMILES: N.N.[Cl][Pt][Cl] [cisplatin]
- T/C(%) ([6]; room temperature, i.p. lavage x 5): 137.1%
- MST ([6]; room temperature, i.p. lavage x 5, control 13.2 ± 1.9): 18.1 ± 3.2 days
- Ascitic fluid ([6]; day 11, RT, control 14.85 ± 2.56): 7.30 ± 2.32 mL

SMILES: O=C1[O][Pt]2([NH][C@@H]3CCCC[C@H]3[NH]2)[O]C1=O [oxaliplatin]
- Ascitic fluid ([7]; day 11, control 16.5 ± 4.3): 8.7 ± 1.9 mL
- T/C(%) ([7]; i.p. lavage x 5): 177.6%
- MST ([7]; i.p. lavage x 5, control 12.2 ± 3.0): 21.7 ± 2.8 days
